Earlier results as cited in publication PMC3925743 (Journal of controlled release : official journal of the …, 2013).

Test system: prostate cancer LNCaP cells

For protamine, the “delivery of siRNA into cells” value is listed as “cannot deliver siRNA”.
